Measured values reported in ChEMBL document CHEMBL3259781 (J Med Chem, 2014).
pEC50, pKi: −log10 of the molar value. Converted amounts (≈) assume the structure as drawn.

Legend:
Adenosine receptor A2b [1] = target: T1, Adenosine receptor A2b (Homo sapiens, UniProt P29275)
T1 sequence (P29275 whole entry): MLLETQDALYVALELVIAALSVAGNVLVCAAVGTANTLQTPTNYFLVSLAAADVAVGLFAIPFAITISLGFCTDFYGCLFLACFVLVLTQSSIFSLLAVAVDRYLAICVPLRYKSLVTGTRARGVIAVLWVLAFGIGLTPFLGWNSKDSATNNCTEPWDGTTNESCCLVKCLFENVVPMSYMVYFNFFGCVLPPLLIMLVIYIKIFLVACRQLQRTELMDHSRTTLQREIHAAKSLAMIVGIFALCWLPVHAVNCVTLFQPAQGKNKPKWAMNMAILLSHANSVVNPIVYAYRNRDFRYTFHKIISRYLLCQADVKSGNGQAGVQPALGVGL

Adenosine receptor A2a [2] = target: T2, Adenosine receptor A2a (Homo sapiens, UniProt P29274)
Adenosine receptor A3 [3] = target: T3, Adenosine receptor A3 (Homo sapiens, UniProt P0DMS8)
T3 sequence (P0DMS8 whole entry): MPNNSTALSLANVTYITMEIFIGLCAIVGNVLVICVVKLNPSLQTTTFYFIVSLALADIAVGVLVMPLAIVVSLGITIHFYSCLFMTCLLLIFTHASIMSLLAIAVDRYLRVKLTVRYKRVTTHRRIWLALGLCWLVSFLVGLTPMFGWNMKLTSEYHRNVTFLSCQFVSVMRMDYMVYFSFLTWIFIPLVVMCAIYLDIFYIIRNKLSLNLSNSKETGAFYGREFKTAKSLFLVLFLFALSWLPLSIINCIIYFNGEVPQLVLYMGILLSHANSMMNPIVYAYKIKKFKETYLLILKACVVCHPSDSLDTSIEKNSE

Rattus norvegicus [4] = test: Anticataleptic activity in po dosed rat assessed as inhibition of haloperidol-induced catalepsy; assay type: functional
Adenosine receptor A1 [5] = target: T4, Adenosine receptor A1 (Homo sapiens, UniProt P30542)
T4 sequence (P30542 whole entry): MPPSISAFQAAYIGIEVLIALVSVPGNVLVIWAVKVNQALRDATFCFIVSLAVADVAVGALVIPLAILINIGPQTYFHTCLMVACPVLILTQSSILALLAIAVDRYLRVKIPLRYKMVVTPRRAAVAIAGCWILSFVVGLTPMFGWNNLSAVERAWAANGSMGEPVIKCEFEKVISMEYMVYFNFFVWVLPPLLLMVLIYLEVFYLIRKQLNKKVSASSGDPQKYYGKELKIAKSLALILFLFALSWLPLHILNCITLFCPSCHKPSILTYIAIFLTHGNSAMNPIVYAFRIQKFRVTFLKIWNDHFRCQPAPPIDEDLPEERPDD

Adenosine receptor A3 [6] = target: T3, Adenosine receptor A3; test: Binding affinity to human recombinant adenosine A3 receptor
Adenosine receptor A2b [7] = target: T1, Adenosine receptor A2b; remark: listed apart in the source
Adenosine receptor A1 [8] = target: T4, Adenosine receptor A1; remark: listed apart in the source
Homo sapiens = organism: Homo sapiens; test: Selectivity ratio of Ki for human recombinant adenosine A1 receptor to Ki for human recombinant adenosine receptor A2a
[9] = Oral bioavailability in rat; assay type: ADME, organism-based; settings: in vivo
[10] = Solubility of the compound in water pH 7.4; assay type: physicochemical
Rattus norvegicus [11] = test: Anticataleptic activity in rat assessed as inhibition at 3 mg/kg, po after 1 hr; assay type: functional
Rattus norvegicus [12] = test: Anticataleptic activity in rat assessed as inhibition at 1 mg/kg, po after 1 hr; assay type: functional; settings: Rattus norvegicus, po, 1 h
[13] = Plasma clearance in rat; assay type: ADME, organism-based
[14] = Half life in rat; assay type: ADME, organism-based; settings: in vivo
Rattus norvegicus [15] = test: Anticataleptic activity in rat assessed as inhibition at 3 mg/kg, po after 4 hrs; assay type: functional
Adenosine receptor A2a [16] = target: Adenosine receptor A2a (Rattus norvegicus, UniProt P30543); test: Binding affinity to rat recombinant adenosine receptor A2a
Rattus norvegicus [17] = organism: Rattus norvegicus; test: Selectivity ratio of Ki for rat striatal adenosine A1 receptor to Ki for rat recombinant adenosine receptor A2a
Mus musculus [18] = test: Anticataleptic activity in po dosed mouse assessed as inhibition of haloperidol-induced catalepsy; assay type: functional
Adenosine receptor A2a [19] = target: T2, Adenosine receptor A2a; remark: listed apart in the source
Mus musculus [20] = test: Anticataleptic activity in mouse assessed as inhibition of CGS21680-induced catalepsy at 10 mg/kg, po; assay type: functional

T2 sequence (P29274 whole entry): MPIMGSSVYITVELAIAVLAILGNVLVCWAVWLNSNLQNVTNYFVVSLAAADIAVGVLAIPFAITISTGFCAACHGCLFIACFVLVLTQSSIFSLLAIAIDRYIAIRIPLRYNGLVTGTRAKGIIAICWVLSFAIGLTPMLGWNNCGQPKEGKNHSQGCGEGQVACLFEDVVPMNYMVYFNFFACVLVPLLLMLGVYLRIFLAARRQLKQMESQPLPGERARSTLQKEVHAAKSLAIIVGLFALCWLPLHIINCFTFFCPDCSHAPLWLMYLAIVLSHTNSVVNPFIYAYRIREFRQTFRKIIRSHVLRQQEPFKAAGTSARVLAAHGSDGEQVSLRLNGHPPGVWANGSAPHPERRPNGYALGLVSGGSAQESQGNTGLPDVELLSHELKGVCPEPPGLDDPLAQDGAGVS
Chain of Adenosine receptor A2a (Rattus norvegicus, UniProt P30543) (P30543 whole entry): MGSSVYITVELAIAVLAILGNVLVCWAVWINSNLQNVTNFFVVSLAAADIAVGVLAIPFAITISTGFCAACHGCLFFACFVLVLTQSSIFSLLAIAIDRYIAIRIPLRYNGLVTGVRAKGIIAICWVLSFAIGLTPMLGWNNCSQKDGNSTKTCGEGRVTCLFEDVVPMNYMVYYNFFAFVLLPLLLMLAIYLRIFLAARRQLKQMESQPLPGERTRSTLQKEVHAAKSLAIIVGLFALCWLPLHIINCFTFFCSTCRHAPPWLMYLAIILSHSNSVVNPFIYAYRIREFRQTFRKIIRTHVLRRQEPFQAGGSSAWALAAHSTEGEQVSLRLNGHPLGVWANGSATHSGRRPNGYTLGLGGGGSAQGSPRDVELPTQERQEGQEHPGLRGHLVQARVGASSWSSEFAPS

In the case of `Nc1nc(-c2ccco2)c2ncn(C(=O)NCc3ccco3)c2n1`, the pKi (Adenosine receptor A2b [1]) was 6.85, the pKi (Adenosine receptor A2a [2]) was 8.77 and the pKi (Adenosine receptor A3 [3]) was 5.71.
With `Cc1cc(C)n(-c2cc(NC(=O)COc3cccc(CN(C)C)c3)nc(-c3ccc(C)o3)n2)n1` the ED50 (Rattus norvegicus [4]) was 10 mg/kg and the pKi (Adenosine receptor A1 [5]) was 7.40.
`CNC(=O)c1cnn(-c2nc(N)c3ncn([C@@H]4O[C@H](CO)[C@@H](O)[C@H]4O)c3n2)c1` [REGADENOSON ANHYDROUS] gave a pKi (Adenosine receptor A3 [6]) of 5.00, a pEC50 (Adenosine receptor A2b [7]) of 5.00 and a pKi (Adenosine receptor A1 [8]) of 5.42.
With `COCc1cccc(CNC(=O)c2cc(-c3ccco3)nc(N)n2)n1` the Ratio Ki (Homo sapiens) was 25, the bioavailability [9] was 90% and the solubility [10] was greater than 450 µM.
`Cc1cnc2c(c1)CN(CCn1ncc3c1nc(N)n1nc(-c4ccco4)nc31)CC2` gave an inhibition in vivo at 3 mg/kg (Rattus norvegicus [11]) of 80%, an inhibition in vivo at 1 mg/kg (Rattus norvegicus [12]) of 65% and a clearance [13] of 4.7 mL/min/kg. It also gave a solubility [10] of 100 µM (≈ 41.5 µg/mL), a half-life [14] of 11.3 h and a pKi (Adenosine receptor A1 [5]) of 6.45.
`CCNC(=O)[C@H]1O[C@@H](n2cnc3c(N)nc(C#CC[C@H]4CC[C@H](C(=O)OC)CC4)nc32)[C@H](O)[C@@H]1O` [APADENOSON] showed a pKi (Adenosine receptor A3 [6]) of 7.35 and a pKi (Adenosine receptor A1 [8]) of 7.11.
For `CN(CCN1CCN(c2ccc(F)cc2F)CC1)c1cc2nc(-c3cccc(C#N)c3)nn2c(N)n1`, the Ratio Ki (Homo sapiens) was 620 and the pKi (Adenosine receptor A1 [5]) was 5.95.
`CC(=O)Nc1cc(-n2cccn2)nc(-c2ccco2)n1` showed a Ratio Ki (Homo sapiens) of 17 and a pKi (Adenosine receptor A1 [5]) of 7.99.
Work on `COc1cnc(N2CCOCC2)c2sc(NC(=O)c3ccc(F)cc3)nc12` yielded a Ratio Ki (Homo sapiens) of 420, a pKi (Adenosine receptor A2a [2]) of 8.30 and a pKi (Adenosine receptor A1 [5]) of 5.68.
`O[C@H](c1cc(C(F)(F)F)nc2c(C(F)(F)F)cccc12)[C@@H]1CCCCN1` [(R,S)-MEFLOQUINE] gave a pKi (Adenosine receptor A2b [1]) of 5.15.
Compound `Cn1c(=O)c2c(ncn2C)n(C)c1=O` [CAFFEINE] has an inhibition in vivo at 3 mg/kg (Rattus norvegicus [11]) of 35% and an inhibition in vivo at 3 mg/kg (Rattus norvegicus [15]) of 14%.
In the case of `CC(C)c1nc(-c2nccs2)c2sccc2n1`, the Ratio Ki (Homo sapiens) was 148 and the bioavailability [9] was 5.8%.
With `Nc1nc(Nc2ccccc2)nc2c1ncn2[C@@H]1O[C@H](CO)[C@@H](O)[C@H]1O` the pKi (Adenosine receptor A2a [16]) was 7.00.
With `CC(O)(C#Cc1cn2nc(-c3ccco3)nc2c(N)n1)c1ccccc1` (stereo not drawn) the Ratio Ki (Rattus norvegicus [17]) was 3.4.
With `CN(C)CCn1ncc2c1nc(N)n1c(=O)n(Cc3cccc(Cl)c3)nc21` the Ratio Ki (Homo sapiens) was 269 and the pKi (Adenosine receptor A1 [5]) was 5.85.
Compound `CCCCc1nc(N)c2nc(-n3nccn3)n(C)c2n1` [ST1535] has a Ratio Ki (Homo sapiens) of 12, a pKi (Adenosine receptor A1 [5]) of 7.10 and a pKi (Adenosine receptor A3 [3]) of less than 5.00.
For `CC(O)CCc1nc(N)c2nc(-n3nccn3)n(C)c2n1` (stereo not drawn), the Ratio Ki (Homo sapiens) was 3 and the pKi (Adenosine receptor A1 [5]) was 7.62.
Compound `Nc1nc(-c2ccccc2)c2c(n1)-c1cc(NCCN3CCOCC3)ccc1C2=O` has an ED50 (Mus musculus [18]) of less than 0.1 mg/kg.
`Nc1nc(Cl)nc2c1ncn2[C@@H]1O[C@H](CO)[C@@H](O)[C@H]1O` showed a pKi (Adenosine receptor A3 [6]) of 7.72, a pKi (Adenosine receptor A2a [19]) of 6.74 and a pKi (Adenosine receptor A1 [8]) of 8.86.
Work on `Nc1nc(-c2ccccc2)c2c(n1)-c1cc(CN3CCCC3)ccc1C2=O` yielded an ED50 (Rattus norvegicus [4]) of 0.5 mg/kg.
Work on `Nc1nc(OCCc2ccc(Cl)cc2)nc2c1ncn2[C@@H]1O[C@H](CO)[C@@H](O)[C@H]1O` [SONEDENOSON] yielded a pEC50 (Adenosine receptor A2b [7]) of 5.00 and a pKi (Adenosine receptor A1 [8]) of 5.00.
In the case of `COC(=O)Nc1cc2c(-c3ccccc3)ccc(OC)c2o1`, the inhibition in vivo at 10 mg/kg (Mus musculus [20]) was 86%.
